Experimental findings from US20260265220A1, “GALPHA12 INHIBITORS AND METHODS USING SAME” (RUTGERS, THE STATE UNIVERSITY OF NEW JERSEY, priority 2022, published 2026) are described below.

One experiment concerns the target T1, Gα12 (Homo sapiens, UniProt Q03113).
T1 sequence (Q03113 1-381): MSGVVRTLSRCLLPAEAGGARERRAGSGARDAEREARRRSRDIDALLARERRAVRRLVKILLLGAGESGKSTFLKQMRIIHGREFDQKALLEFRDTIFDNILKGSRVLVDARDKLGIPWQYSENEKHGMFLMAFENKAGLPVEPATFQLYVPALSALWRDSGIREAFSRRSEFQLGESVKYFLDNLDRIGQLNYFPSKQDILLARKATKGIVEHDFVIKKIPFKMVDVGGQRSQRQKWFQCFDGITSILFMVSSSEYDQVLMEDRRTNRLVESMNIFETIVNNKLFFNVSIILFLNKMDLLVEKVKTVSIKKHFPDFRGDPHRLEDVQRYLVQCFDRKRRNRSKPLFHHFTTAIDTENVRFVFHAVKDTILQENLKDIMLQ
The experiment is described as follows: Gα12 luciferase reporter assay in hTERT-SRE immortalized airway smooth muscle cells, carbachol stimulated. The class given is cell-based. As to conditions: carbachol (CCh) stimulated, dose response. An excerpt:
FIGS. 1A-1C show an experimental approach to the identification of Gα12 modulators using hTERT-SRE human telomerase reverse transcriptase immortalized airway smooth muscle cells. FIG. 1A: provides a schematic representation of Gα12-activated luciferase reporter. […] FIG. 1C: provides a detailed schematic showing the downstream effects of Gα12/13 activation and/or inhibition, wherein serum response element (SRE) may be detected by a luciferase assay, and pAKT and pMLC may be detected by Western blotting. A Gα12 luciferase reporter assay was used to evaluate the potential of analogues of compound 1 as bronchodilators (FIGS. 2A-2C), wherein the assay utilized hTERT-SRE telomerase reverse transcriptase immortalized airway smooth muscle cells. In certain embodiments, the Gα12 pathway is activated with carbachol (CCh), resulting in downstream transcription of a […]/luciferase fusion protein (FIG. 1A), and consequently, a fluorescence signal (FIG. 1B). In certain embodiments, detection of a decrease in observed fluorescent signal indicates inhibition of Gα12. Further, activation of the Gα12 pathway results in elevated levels of phosphorylated AKT (pAKT) and MLC (pMLC) (FIG. 1C). In certain embodiments, detection of a decrease in pAKT and/or pMLC indicates inhibition of Gα12.

For experiment [1], the system named is MLC phosphorylation (pMLC). The experiment is described as follows: Immunoblot analysis of myosin light chain phosphorylation (pMLC) in airway smooth muscle cells. The class given is cell-based, human. Conditions: for agonist specificity of the effect on pMLC activation: carbachol versus histamine; for potency and efficacy on carbachol-induced pMLC activation: relative to the parent compound 1 (BDF). As for the experimental part: (§1) Compounds 1-3 were evaluated for inhibition of AKT and MLC phosphorylation. As described elsewhere herein, phosphorylation of AKT and/or MLC can occur with activation of the Gα12 pathway. Accordingly, in certain embodiments, detection of a decrease in pAKT and/or pMLC indicates inhibition of Gα12.
(§2) The immunoblot analysis of phosphorylation of myosin light chain (pMLC) was used as a surrogate for ASM contraction. In parallel, phosphorylation of AKT was analogously assessed. AKT is a downstream substrate for phosphoinositide 3-kinase (PI3K) activity, can modulate the activation of the Gα12 pathway in primary human airway smooth muscle cells. These cells are the pivotal cells regulating bronchomotor tone in asthma and chronic obstructive pulmonary disease (COPD) which is emphysema or chronic bronchitis.
(§3) The analogues described herein were further assessed for potency and efficacy in inhibiting AKT and pMLC phosphorylation induced by contractile agonists, carbachol, or histamine. These contractile agonists are pivotal in causing airway smooth muscle contraction and airway obstruction in asthma and COPD.

Experiment [2] has as its system AKT phosphorylation (pAKT). The experiment in a line: Immunoblot analysis of AKT phosphorylation (pAKT) in airway smooth muscle cells. The class given is cell-based, human. As for the experimental part:
as §1, §2, §3

Entries after “also recorded” stand apart in the source; their conditions may differ.

Consider `CC(C)(NC(=O)Cc1ccccc1F)C(=O)N1CCOCC(Cc2cccc3ccncc23)C1` (stereo not shown) [BDH, 2-(2-fluorophenyl)-N-(1-(6-(isoquinolin-8-ylmethyl)-1,4-oxazepan-4-yl)-2-methyl-1-oxopropan-2-yl)acetamide, reference compound], for which the “modulation of Gα12 luciferase reporter signal (agonist/antagonist)” value (from here on “modulation … (agonist/antagonist)”) on Gα12 is reported as “dose-dependent activation”.

With `Cc1ccc(Cc2ccc(C3CN(C(=O)c4cnc(C)cn4)CCO3)nc2)cc1` (stereo not shown) [Compound 2, (2-(5-(4-methylbenzyl)pyridin-2-yl)morpholino)(5-methylpyrazin-2-yl)methanone], in experiment [1], the “agonist specificity of the effect on pMLC activation” value is recorded as “specific for carbachol rather than histamine”; the “potency and efficacy on carbachol-induced pMLC activation” value was “improved potency and efficacy”. In addition, the “modulation … (agonist/antagonist)” value at Gα12 is given as “Gα12 antagonists”.

For `CCN1CCC(CC(=O)N2CCOC(c3ccc(-c4cccc(OC)c4)cn3)C2)CC1` (stereo not shown) [Compound 3, 2-(1-ethylpiperidin-4-yl)-1-(2-(5-(3-methoxyphenyl)pyridin-2-yl)morpholino)ethan-1-one], the pAKT entry in experiment [2] (compound at 10 μM (FIGS. 4A-4B)) and in experiment [2] (compound at 100 μM (FIGS. 4A-4B)) was “decrease; also recorded: significantly decreased” each time. The “agonist specificity of the effect on pMLC activation” value in experiment [1] is listed as “specific for carbachol rather than histamine”. The pMLC entry in experiment [1] (compound at 10 μM (FIGS. 4C-4D)) and in experiment [1] (compound at 100 μM (FIGS. 4C-4D)) was “decrease; also recorded: significantly decreased” throughout. For the same compound, the “potency and efficacy on carbachol-induced pMLC activation” value in experiment [1] is “improved potency and efficacy”. For the same compound, the “modulation … (agonist/antagonist)” value at Gα12 is “Gα12 antagonists”.

For the compound `FC(F)(F)c1cccc(Cc2ccc(C3CN(Cc4cccnc4)CCO3)nc2)c1` (stereo not shown) [Compound 5, 4-(pyridin-3-ylmethyl)-2-(5-(3-(trifluoromethyl)benzyl)pyridin-2-yl)morpholine], the “inhibition of AKT phosphorylation (pAKT) by agonists” value in experiment [2] (contractile agonists carbachol or histamine) is “inactive”. For the same compound, in experiment [1] (contractile agonists carbachol or histamine, FIGS. 6A-6B), the “agonist-induced pMLC activation” value was “inactive”.
